Laboratory results as given in patent US20240300932A1, “N-PHENYLIMINE DERIVATIVE AND PREPARATION METHOD AND USE THEREOF” (Guizhou University, priority 2023, published 2024).

Tests used:
Trifoliumre pensL. = test: Post-emergence herbicidal activity test (stem and leaf spray, pot culture); assay type: in vivo; settings: 3 weeks after spraying
How it was run: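 Rates of 10, 5 and 2.5 g/mu were applied in a single spray-tower treatment to 2–3-leaf plants, thinned to 10 per pot. Formulation: acetone solution, Tween 80, 1.5 L/ha methyl oleate synergist. Weed response assessed after 3 further greenhouse weeks; mean of three experiments.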

Abutilon theophrasti = test: as above; assay type: in vivo; settings: 3 weeks after spraying
How it was run: (§1)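 Pot-grown weeds in loam (pH 7, 1.63% organic matter) were spray-treated on stems and leaves at the 2- to 3-leaf stage with compound in acetone/Tween 80 plus 1.5 liters/ha methyl oleate at 10, 5 or 2.5 g/mu. Fresh-weight growth control was scored 3 weeks later as grades 0–5.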

Setaria viridis = test: as above; assay type: in vivo; settings: 3 weeks after spraying
How it was run: as §1

Echinochloa crusgalli = test: as above; assay type: in vivo; settings: 3 weeks after spraying
How it was run: as §1

Portulaca oleracea = test: as above; assay type: in vivo; settings: 3 weeks after spraying
How it was run: as §1

Amaranthus retroflexus = test: as above; assay type: in vivo; settings: 3 weeks after spraying
How it was run: as §1

Structure (SMILES): O=C(COc1cc(N2C(=O)C3=C(CCCC3)C2=O)c(F)cc1Cl)c1ccc(Cl)cc1 [Compound C11, 2-(4-chloro-2-fluoro-5-(2-oxo-2-(4-chlorophenyl)ethoxy)phenyl)-4,5,6,7-tetrahydro-1H-isoindole-1,3(2H)-dione]
- Post-emergence herbicidal activity, Trifoliumre pensL. (grade) (Trifoliumre pensL.; dosage 2.5 g/mu): 5 (Grade 5: the growth control rate is greater than or equal to 85%)
- Post-emergence herbicidal activity, Trifoliumre pensL. (grade) (Trifoliumre pensL.; dosage 5 g/mu): 5 (Grade 5: the growth control rate is greater than or equal to 85%)
- Post-emergence herbicidal activity, Trifoliumre pensL. (grade) (Trifoliumre pensL.; dosage 10 g/mu): 5 (Grade 5: the growth control rate is greater than or equal to 85%)
- Post-emergence herbicidal activity, A. theophrasti (grade) (Abutilon theophrasti; dosage 2.5 g/mu): 5 (Grade 5: the growth control rate is greater than or equal to 85%)
- Post-emergence herbicidal activity, A. theophrasti (grade) (Abutilon theophrasti; dosage 5 g/mu): 5 (Grade 5: the growth control rate is greater than or equal to 85%)
- Post-emergence herbicidal activity, A. theophrasti (grade) (Abutilon theophrasti; dosage 10 g/mu): 5 (Grade 5: the growth control rate is greater than or equal to 85%)
- Post-emergence herbicidal activity, S. viridis (grade) (Setaria viridis; dosage 2.5 g/mu): 2 (Grade 2: the growth control rate is greater than or equal to 20% and less than 40%)
- Post-emergence herbicidal activity, S. viridis (grade) (Setaria viridis; dosage 5 g/mu): 3 (Grade 3: the growth control rate is greater than or equal to 40% and less than 60%)
- Post-emergence herbicidal activity, S. viridis (grade) (Setaria viridis; dosage 10 g/mu): 4 (Grade 4: the growth control rate is greater than or equal to 60% and less than 85%)
- Post-emergence herbicidal activity, E. crusgalli (grade) (Echinochloa crusgalli; dosage 2.5 g/mu): 1 (Grade 1: the growth control rate is greater than or equal to 5% and less than 20%)
- Post-emergence herbicidal activity, E. crusgalli (grade) (Echinochloa crusgalli; dosage 5 g/mu): 2 (Grade 2: the growth control rate is greater than or equal to 20% and less than 40%)
- Post-emergence herbicidal activity, E. crusgalli (grade) (Echinochloa crusgalli; dosage 10 g/mu): 3 (Grade 3: the growth control rate is greater than or equal to 40% and less than 60%)
- Post-emergence herbicidal activity, P. oleracea (grade) (Portulaca oleracea; dosage 2.5 g/mu): 5 (Grade 5: the growth control rate is greater than or equal to 85%)
- Post-emergence herbicidal activity, P. oleracea (grade) (Portulaca oleracea; dosage 5 g/mu): 5 (Grade 5: the growth control rate is greater than or equal to 85%)
- Post-emergence herbicidal activity, P. oleracea (grade) (Portulaca oleracea; dosage 10 g/mu): 5 (Grade 5: the growth control rate is greater than or equal to 85%)
- Post-emergence herbicidal activity, A. retroflexus (grade) (Amaranthus retroflexus; dosage 2.5 g/mu): 5 (Grade 5: the growth control rate is greater than or equal to 85%)
- Post-emergence herbicidal activity, A. retroflexus (grade) (Amaranthus retroflexus; dosage 5 g/mu): 5 (Grade 5: the growth control rate is greater than or equal to 85%)
- Post-emergence herbicidal activity, A. retroflexus (grade) (Amaranthus retroflexus; dosage 10 g/mu): 5 (Grade 5: the growth control rate is greater than or equal to 85%)
- melting point: 148 to 150 °C
